Target: T1, 2,6-dichloro-p-hydroquinone 1,2-dioxygenase (Sphingobium chlorophenolicum, UniProt Q9ZBB0)
T1 sequence (Q9ZBB0 whole entry): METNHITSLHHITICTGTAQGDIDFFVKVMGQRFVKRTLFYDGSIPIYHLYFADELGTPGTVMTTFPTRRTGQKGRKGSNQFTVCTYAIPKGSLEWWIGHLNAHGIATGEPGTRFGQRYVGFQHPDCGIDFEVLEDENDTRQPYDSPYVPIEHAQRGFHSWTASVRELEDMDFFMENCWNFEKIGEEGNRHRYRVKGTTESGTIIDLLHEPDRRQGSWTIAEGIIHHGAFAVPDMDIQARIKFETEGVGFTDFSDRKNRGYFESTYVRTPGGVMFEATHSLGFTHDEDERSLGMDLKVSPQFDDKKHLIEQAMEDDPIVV
Assay: Inhibition Assay
Description: The rate of the enzymatic reaction was determined by measuring product formation by a spectrophotometric assay developed by Xun and co-worker with modification. The assay was performed on a Cary 50 Bio or Cary 5000 UV-visible spectrophotometer (Varian).

| SMILES | Ki |
| --- | --- |
| Oc1c(Br)cccc1Br | 13 µM |
| Oc1c(Cl)cccc1Cl [2,6-Dichlorophenol] | 48 µM |

— BindingDB's records for doi:10.1021/bi200855m (Whitman College, 2011)
